In patent US4521335A, “Aglycone and pseudo-aglycones of the AAD 216 antibiotics” (SmithKline Beckman Corporation, priority 1984, dated 1985):
Converted amounts (≈) assume the structure as drawn.

Legend:
[1] = tested on: k. pneumoniae 4200 (SK & F 798); assay: MIC, standard microtiter assay; assay type: cell-based; conditions: Klebsiella pneumoniae
[2] = tested on: Staph. epidermidis SK & F 2479; assay: MIC, standard microtiter assay; assay type: cell-based; conditions: Staphylococcus epidermidis
C. perfringens MCP-2 = assay: microbe, parasite or virus in culture; assay type: cell-based; conditions: Clostridium perfringens
C. difficile SK & F 3092 = assay: MIC, standard microtiter assay; assay type: cell-based; conditions: Clostridioides difficile
B. fragilis SK & F 3060 = assay: MIC, standard microtiter assay; assay type: cell-based; conditions: Bacteroides fragilis
[3] = tested on: Staph. aureus SK & F 2621; assay: MIC, standard microtiter assay; assay type: cell-based; conditions: Staphylococcus aureus
[4] = tested on: Bacteroides fragilis ATCC 25285; assay: MIC, standard microtiter assay; assay type: cell-based; conditions: ATCC25285
C. difficile SK & F 3098 = assay: MIC, standard microtiter assay; assay type: cell-based; conditions: Clostridioides difficile
[5] = tested on: Staph. epidermidis SK & F 2265; assay: MIC, standard microtiter assay; assay type: cell-based; conditions: Staphylococcus epidermidis
[6] = tested on: C. perfringens ATCC 19408; assay: microbe, parasite or virus in culture; assay type: cell-based; conditions: Clostridium perfringens, ATCC19408
[7] = tested on: Staph. aureus SK & F 1761; assay: MIC, standard microtiter assay; assay type: cell-based; conditions: Staphylococcus aureus
[8] = tested on: Staph. aureus SK & F 674-P6-mutant; assay: microbe, parasite or virus in culture; assay type: cell-based; conditions: Staphylococcus aureus
[9] = tested on: Strep. faecalis SK & F 657; assay: MIC, standard microtiter assay; assay type: cell-based; conditions: Enterococcus faecalis
C. difficile SK & F 3065 = assay: MIC, standard microtiter assay; assay type: cell-based; conditions: Clostridioides difficile
[10] = tested on: Staph. aureus SK & F 2680; assay: MIC, standard microtiter assay; assay type: cell-based; conditions: Staphylococcus aureus
[11] = tested on: Staph. epidermidis SK & F 651; assay: MIC, standard microtiter assay; assay type: cell-based; conditions: Staphylococcus epidermidis
[12] = tested on: Clostridium perfringens MCP-1; assay: microbe, parasite or virus in culture; assay type: cell-based; conditions: MCP1
[13] = tested on: Staph. aureus SK & F 2677; assay: MIC, standard microtiter assay; assay type: cell-based; conditions: Staphylococcus aureus
[14] = tested on: Staph. aureus SK & F 2616; assay: MIC, standard microtiter assay; assay type: cell-based; conditions: Staphylococcus aureus
Staph. aureus SK & F 910 = assay: MIC, standard microtiter assay; assay type: cell-based
[15] = tested on: Staph. aureus SK & F 2590; assay: MIC, standard microtiter assay; assay type: cell-based; conditions: Staphylococcus aureus
[16] = tested on: Bacteroides Fragilis ATCC; assay: MIC, standard microtiter assay; assay type: cell-based
Staph. aureus SK & F 674 = assay: MIC, standard microtiter assay; assay type: cell-based; conditions: Staphylococcus aureus
Strep. faecilis HH34358 = assay: MIC, standard microtiter assay; assay type: cell-based
[17] = tested on: Staph. aureus SK & F 2678; assay: MIC, standard microtiter assay; assay type: cell-based; conditions: Staphylococcus aureus
[18] = tested on: Salmonella gallinarum BC-595; assay: microbe, parasite or virus in culture; assay type: cell-based; conditions: Salmonella enterica
[19] = tested on: Serratia marcesens ATCC 13880; assay: MIC, standard microtiter assay; assay type: cell-based; conditions: ATCC13880
C. difficile SK & F 3091 = assay: MIC, standard microtiter assay; assay type: cell-based; conditions: Clostridioides difficile
[20] = tested on: Staph. aureus SK & F 209P; assay: MIC, standard microtiter assay; assay type: cell-based; conditions: Staphylococcus aureus
[21] = tested on: inoculum (rumen cannula filtrate); assay: rumen in vitro model, growth promotant activity; conditions: experiment III; for GLU (% Control): glucose; for LYS (% Control): lysine; for Propionate % (% Control): propionate as percentage of total VFA; for VFA (% Control): total volatile fatty acids
[22] = tested on: Staph. aureus SK & F 2594; assay: MIC, standard microtiter assay; assay type: cell-based; conditions: Staphylococcus aureus
[23] = tested on: Strep. faecalis SK & F 34358; assay: MIC, standard microtiter assay; assay type: cell-based; conditions: Enterococcus faecalis
[24] = tested on: Proteus morgani SK & F 179; assay: MIC, standard microtiter assay; assay type: cell-based

## CN[C@H](CC(C)C)C(=O)N[C@H]1C(=O)N[C@@H](CC(N)=O)C(=O)N[C@H]2C(=O)N[C@H]3C(=O)N[C@H](C(=O)N[C@H](C(=O)O)c4cc(O)cc(O)c4-c4cc3ccc4O)[C@H](O)c3ccc(c(Cl)c3)Oc3cc2cc(c3O[C@@H]2O[C@H](CO)[C@@H](O)[C@H](O)[C@H]2O[C@H]2C[C@](C)(N)[C@H](O)[C@H](C)O2)Oc2ccc(cc2Cl)[C@H]1O [Vancomycin, vancomycin]
[1]
  MIC: > 100 µg/mL
[2]; Table A
  MIC: 1.6 µg/mL (≈ 1.1 µM)
[2]; Table E
  MIC: 3.1 µg/mL (≈ 2.14 µM)
C. perfringens MCP-2; MCP2, Table D, Anaerobes
  MIC: 0.5 µg/mL (≈ 0.345 µM)
C. perfringens MCP-2; MCP2, Table F
  MIC: 2 µg/mL (≈ 1.38 µM)
C. difficile SK & F 3092; Table D, Anaerobes
  MIC: 2 µg/mL (≈ 1.38 µM)
C. difficile SK & F 3092; Table F
  MIC: 0.5 µg/mL (≈ 0.345 µM)
B. fragilis SK & F 3060
  MIC: 32 µg/mL (≈ 22.1 µM)
[3]
  MIC: 1.6 µg/mL (≈ 1.1 µM)
[4]
  MIC: 32 µg/mL (≈ 22.1 µM)
C. difficile SK & F 3098
  MIC: 2 µg/mL (≈ 1.38 µM)
[5]
  MIC: 3.1 µg/mL (≈ 2.14 µM)
[6]
  MIC: 1 µg/mL (≈ 0.69 µM)
[7]
  MIC: 1.6 µg/mL (≈ 1.1 µM)
[8]
  MIC: 100 µg/mL (≈ 69 µM)
[9]
  MIC: 3.1 µg/mL (≈ 2.14 µM)
C. difficile SK & F 3065; Table D, Anaerobes
  MIC: 4 µg/mL (≈ 2.76 µM)
C. difficile SK & F 3065; Table F
  MIC: 1 µg/mL (≈ 0.69 µM)
[10]
  MIC: 1.6 µg/mL (≈ 1.1 µM)
[11]; Table A, Staph. epidermidis SK & F 651
  MIC: 1.6 µg/mL (≈ 1.1 µM)
[11]; Table E, Staph. epidermidis SK & F 651, first entry
  MIC: 3.1 µg/mL (≈ 2.14 µM)
[11]; Table E, Staph. epidermidis SK & F 651, second entry
  MIC: 3.1 µg/mL (≈ 2.14 µM)
[12]
  MIC: 0.5 µg/mL (≈ 0.345 µM)
[13]
  MIC: 1.6 µg/mL (≈ 1.1 µM)
[14]
  MIC: 0.8 µg/mL (≈ 0.552 µM)
Staph. aureus SK & F 910; Staphylococcus aureus
  MIC: 1.6 µg/mL (≈ 1.1 µM)
Staph. aureus SK & F 910; Table A, Staph. aureus SK & F 910
  MIC: 1.6 µg/mL (≈ 1.1 µM)
Staph. aureus SK & F 910; Table E, Staph. aureus SK & F 910
  MIC: 1.6 µg/mL (≈ 1.1 µM)
[15]
  MIC: 1.6 µg/mL (≈ 1.1 µM)
[16]
  MIC: > 32 µg/mL
Staph. aureus SK & F 674
  MIC: 1.6 µg/mL (≈ 1.1 µM)
Strep. faecilis HH34358
  MIC: 3.1 µg/mL (≈ 2.14 µM)
[17]
  MIC: 1.6 µg/mL (≈ 1.1 µM)
[18]
  MIC: > 100 µg/mL
[19]
  MIC: > 100 µg/mL
C. difficile SK & F 3091
  MIC: 2 µg/mL (≈ 1.38 µM)
[20]
  MIC: 1.6 µg/mL (≈ 1.1 µM)
[21]; 0.5 ppm
  GLU (% Control): 17 % Control
  LYS (% Control): 83 % Control
  Propionate % (% Control): 105 % Control
  VFA (% Control): 97 % Control
[21]; 5.0 ppm
  GLU (% Control): 165 % Control
  LYS (% Control): 85 % Control
  Propionate % (% Control): 130 % Control
  VFA (% Control): 108 % Control
[21]; 50.0 ppm
  GLU (% Control): 189 % Control
  LYS (% Control): 97 % Control
  Propionate % (% Control): 127 % Control
  VFA (% Control): 107 % Control
[22]
  MIC: 1.6 µg/mL (≈ 1.1 µM)
[23]
  MIC: 3.1 µg/mL (≈ 2.14 µM)
[24]
  MIC: > 100 µg/mL
